From patent US20120095036A1, “NOVEL SUBSTITUTED INDAZOLE AND AZA-INDAZOLE DERIVATIVES AS GAMMA SECRETASE MODULATORS” (priority 2009, published 2012)

How the values were obtained:
[1] = test system: Aβ42; test: In vivo efficacy: Aβ42 lowering in brain (ELISA); set-up: species or system mouse; details: brain soluble fraction; typical protocol: single oral dose, overnight fasted animals, after four hours
Excerpt: (§1) To determine whether acute administration of an Aβ42 lowering agent would reduce Aβ42 levels in vivo, non-transgenic rodents, e.g. mice or rats were used. Alternatively, two to three month old Tg2576 mice expressing APP695 containing the “Swedish” variant can be used or a transgenic mouse model developed by Dr. Fred Van Leuven (K.U.Leuven, Belgium) and co-workers, with neuron-specific expression of a clinical mutant of the human amyloid precursor protein [V717I] (Moechars et al., 1999 J. Biol. Chem. 274, 6483). Young transgenic mice have high levels of Aβ in the brain but no detectable Aβ deposition. At approximately 6-8 months of age, the transgenic mice start to display spontaneous, progressive accumulation of β-amyloid (A13) in the brain, eventually resulting in amyloid plaques within the subiculum, hippocampus and cortex. Animals treated with the Aβ42 lowering agent were examined and compared to those untreated or treated with vehicle and brain levels of soluble Aβ42 and total Aβ would be quantitated by standard techniques, for example, using ELISA. Treatment periods varied from hours to days and were adjusted based on the results of the Aβ42 lowering once a time course of onset of effect could be established.
(§2) A typical protocol for measuring Aβ42 lowering in vivo is shown but it is only one of many variations that could be used to optimize the levels of detectable Aβ. For example, Aβ42 lowering compounds were formulated in 20% of Captisol® (a sulfobutyl ether of β-cyclodextrin) in water or 20% hydroxypropyl β cyclodextrin. The Aβ42 lowering agents were administered as a single oral dose or by any acceptable route of administration to overnight fasted animals. After four hours, the animals were sacrificed and Aβ42 levels were analysed.
(§3) Blood was collected by decapitation and exsanguinations in EDTA-treated collection tubes. Blood was centrifuged at 1900 g for 10 minutes (min) at 4° C. and the plasma recovered and flash frozen for later analysis. The brain was removed from the cranium and hindbrain. The cerebellum was removed and the left and right hemisphere were separated. The left hemisphere was stored at −18° C. for quantitative analysis of test compound levels. The right hemisphere was rinsed with phosphate-buffered saline (PBS) buffer and immediately frozen on dry ice and stored at −80° C. until homogenization for biochemical assays.
(§4) Mouse brains were resuspended in 10 volumes of 0.4% DEA (diethylamine)/50 mM NaCl pH 10 (for non-transgenic animals) or 0.1% 3-[(3-cholamidopropyl)-dimethyl-ammonio]-1-propanesulfonate (CHAPS) in tris buffered saline (TBS) (for transgenic animals) containing protease inhibitors (Roche-11873580001 or 04693159001) per gram of tissue, e.g. for 0.158 g brain, add 1.58 ml of 0.4% DEA. All samples were sonicated for 30 sec on ice at 20% power output (pulse mode). Homogenates were centrifuged at 221.300×g for 50 min. The resulting high speed supernatants were then transferred to fresh tubes and were optionally further purified before the next step. A portion of the supernatant was neutralized with 10% 0.5 M Tris-HCl and this was used to quantify Aβtotal.
(§5) The obtained supernatants were purified with Water Oasis HLB reverse phase columns (Waters Corp., Milford, Mass.) to remove non-specific immunoreactive material from the brain lysates prior subsequent Aβ detection. Using a vacuum manifold, all solutions were passed through the columns at a rate of approximately 1 ml/min, so the vacuum pressure was adjusted accordingly throughout the procedure. Columns were preconditioned with 1 ml of 100% MeOH, before equilibration with 1 ml of H2O, Non-neutralized brain lysates were loaded onto the columns. The loaded samples were then washed twice with the first wash performed with 1 ml of 5% MeOH, and the second wash with 1 ml of 30% MeOH. Finally, the Aβ was eluted from the columns and into 100×30 mm glass tubes, with a solution of 90% MeOH with 2% NH4OH. […]

[2] = test system: Aβtotal; test: Method 1: Aβtotal sandwich ELISA on media of SKNBE2 cells carrying APP 695 wild type; format: cell-based; details: Homo sapiens, SKNBE2 cells APP 695 wild type, 18 hours
How it was run: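 SKNBE2 cells expressing wild-type APP695 treated with compound for 18 h in Ultraculture; secreted Aβtotal measured by 6E10-capture/biotinylated 4G8 sandwich ELISA with fluorogenic peroxidase read-out. IC50 from 4-parameter fit, top/bottom fixed at 100/0, Hill slope 1; toxicity checked by WST-1.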

[3] = test system: Aβtotal; test: In vivo efficacy: Aβtotal in brain (ELISA); set-up: species or system mouse; details: brain soluble fraction; typical protocol: single oral dose, overnight fasted animals, after four hours
Excerpt: as §1, §2, §3, §4, §5

Compound | Aβ42 (% Ctrl) _Mean [1] | IC50 [2] | Aβtotal (% Ctrl) _Mean [3]
COc1cccc(-n2cc3cccc(Nc4ccc(-n5cnc(C)c5)c(OC)c4)c3n2)c1 [Compound 1, N-[3-methoxy-4-(4-methyl-1H-imidazol-1-yl)phenyl]-2-(3-methoxyphenyl)-2H-indazol-7-amine] | 94 % Ctrl | > 3000 nM | 108 % Ctrl
COc1cccc(-n2nc3c(Nc4ccc(-n5cnc(C)c5)c(OC)c4)cccc3c2C)c1 [Compound 2, N-[3-methoxy-4-(4-methyl-1H-imidazol-1-yl)phenyl]-2-(3-methoxyphenyl)-3-methyl-2H-indazol-7-amine] | 59 % Ctrl | > 1000 nM | 90 % Ctrl
COc1cc(Nc2cccc3cn(CC(F)(F)F)nc23)ccc1-c1cnc(C)o1 [Compound 6, N-[3-methoxy-4-(2-methyl-5-oxazolyl)phenyl]-2-(2,2,2-trifluoroethyl)-2H-indazol-7-amine] | 79 % Ctrl | > 3000 nM | 95 % Ctrl
COc1cc(Nc2cccc3cn(Cc4ccc(F)cc4)nc23)ccc1-n1cnc(C)c1 [Compound 15, 2-[(4-fluorophenyl)methyl]-N-[3-methoxy-4-(4-methyl-1H-imidazol-1-yl)phenyl]-2H-indazol-7-amine] | 69 % Ctrl | > 3000 nM | 94 % Ctrl
COc1cccc(-n2nc3c(Nc4ccc(-c5cnc(C)o5)cc4)cccc3c2C)c1 [Compound 29, 2-(3-methoxyphenyl)-3-methyl-N-[4-(2-methyl-5-oxazolyl)phenyl]-2H-indazol-7-amine] | 96 % Ctrl | > 1000 nM | 98 % Ctrl
COc1cc(Nc2cccc3cn(CC4CC4)nc23)ccc1-c1cnc(C)o1.Cl [Compound 38, 2-(cyclopropylmethyl)-N-[3-methoxy-4-(2-methyl-5-oxazolyl)phenyl]-2H-indazol-7-amine HCl] | 123 % Ctrl | > 3000 nM | 106 % Ctrl
COc1cccc(-n2nc3c(Nc4ccc(-c5cnc(C)o5)c(OC)c4)nccc3c2C)c1 [Compound 42, N-[3-methoxy-4-(2-methyl-5-oxazolyl)phenyl]-2-(3-methoxyphenyl)-3-methyl-2H-pyrazolo[3,4-c]pyridin-7-amine] | 104 % Ctrl | > 3000 nM | 100 % Ctrl
